Results reported in patent US12285399B2, “Composition comprising bornyl acetate or pharmaceutically acceptable salt thereof as active ingredient for prevention or treatment of stress-related disorder” (UNIVERSITY-INDUSTRY COOPERATION GROUP OF KYUNG HEE …, priority 2019, dated 2025).

Tests used:
COX-2 mRNA = assay: RT-PCR of COX-2 mRNA in brain (hippocampus and amygdala) of CRS model; type: in vivo, C57BL/6NTac mice; details: CRS+BA group, 100 mg/kg oral
Description: In order to confirm the antidepressant efficacy of bornyl acetate on the animal model of stress depression, an animal model of depression induced by chronic restrained stress (CRS) was prepared. Specifically, the animal model, 8-week-old male C57BL/6NTac mice after birth (Narabiotechnology, Korea; weight 22-24 g) had been stabilized for 1 week. A 50 ml conical tube (SPL Life sciences, Pocheon, Korea) was punched to make a hole, thereby making a restraint frame. The mice were put in the frame and restrained for 2 hours every day for 14 days. After restraint, the mice were allowed to freely ingest water and food in the home cage.
In order to confirm the inhibitory effect of bornyl acetate on the expression of inflammatory mediators in an animal model of depression induced by chronic restrained stress, mRNA expression was confirmed using reverse transcription-polymerase chain reaction (RT-PCR). Bornyl acetate (100 mg/kg) was orally administered 1 hour before inducing the restrained stress every day. […]
Western blot and RT-PCR analysis were performed in the brain (hippocampus and amygdala) of an animal model of chronic restrained stress (CRS)-induced stress depression to exam and quantify the activation level of inflammatory mediators, thereby verifying the modulating effect of bornyl acetate on the inflammatory response in the brain. […]

COX-2 protein = assay: Western blot of COX-2 protein in brain (hippocampus and amygdala) of CRS model; type: in vivo, C57BL/6NTac mice; details: CRS+BA group
Description: In order to confirm the antidepressant efficacy of bornyl acetate on the animal model of stress depression, an animal model of depression induced by chronic restrained stress (CRS) was prepared. Specifically, the animal model, 8-week-old male C57BL/6NTac mice after birth (Narabiotechnology, Korea; weight 22-24 g) had been stabilized for 1 week. A 50 ml conical tube (SPL Life sciences, Pocheon, Korea) was punched to make a hole, thereby making a restraint frame. The mice were put in the frame and restrained for 2 hours every day for 14 days. After restraint, the mice were allowed to freely ingest water and food in the home cage. The hippocampus and amygdala of the brain were excised. They were added to 200 μl of a protein lysis buffer (10 mM Tris, 0.5 mM EDTA, 0.25 M sucrose), and proteins were isolated using a grinder. The isolated protein was quantified by the Bradford method (Bio-rad, USA) using bovine serum albumin (BSA, Sigma, USA), and then 25 μg of the protein was separated by 10% sodium dodecyl sulfate-polyacrylamide gel electrophoresis (SDS-PAGE) and transferred to polyvinylidene difluoride (PVDF) membrane (Gendepot, UK). PVDF membranes were blocked in 5% skimmed milk (BD, USA) for 1 hour. […] Identification and quantitative analysis of proteins were analyzed using an imaging device ChemiDoc XRS+ (Bio-Rad). […]

CC(=O)OC1CC2CCC1(C)C2(C)C (stereo not shown) [BA, bornyl acetate]
significantly inhibited: mRNA expression of COX-2 (CRS-induced increase) (COX-2 mRNA; amygdala) | mRNA expression of COX-2 (CRS-induced increase) (COX-2 mRNA; hippocampus) | protein expression of COX-2 (CRS-induced increase) (COX-2 protein; amygdala) | protein expression of COX-2 (CRS-induced increase) (COX-2 protein; hippocampus)
